Experimental data as given in patent US11225642B2, “Method for producing renal progenitor cells” (KYOTO UNIVERSITY, priority 2013, dated 2022).

Tested on: OSR1-GFP & SIX2-tdTomato reporter human iPS cell line (4A6C3-10)
Assay: SIX2-positive cell induction method 4, OSR1+SIX2+ cell rate by flow cytometer
Assay type: cell-based
Experimental: 4A6C3-10 was cultured at 37° C. in a 2% to 5% CO2 atmosphere to become 70% to 80% confluent on 10-cm dishes containing a primate ES medium (ReproCELL) supplemented with 500 U/ml penicillin/streptomycin (Invitrogen) and 5 ng/ml recombinant human basic fibroblast growth factor (bFGF, Wako) with the use of ICR-mouse-embryo (fetus 12.5 days old)-derived mouse embryonic fibroblasts (MEF) or SNL feeder cells (McMahon, A. P. and Bradley, A. (1990) Cell 62; 1073-1085) (these cells being previously treated with 15.5 μg/ml mitomycin (Kyowa Hakko Kirin Co., Ltd.) for 2 to 3 hours and seeded at a density of 2×10^5 cells/6-cm dish) as feeder cells. The 10-cm plates containing the cells were rinsed with PBS and treated with a CTK solution (PBS containing 0.25% Trypsin (Invitrogen), 0.1% Collagenase IV (Invitrogen), 20% KnockOut SR (KSR, Invitrogen), and 1 mM CaCl2) at 37° C. for 4 minutes. The CTK solution was removed by rinsing with PBS. Then, the medium was exchanged with DMEM/F12+Glutamax (Invitrogen) containing 0.1 mM MEM NEAA (Invitrogen), 1000 U/ml penicillin/streptomycin, 0.55 mM 2-mercaptoethanol (Invitrogen), and 20% KSR. Subsequently, the cells were scraped using a cell scraper and seeded on 6-cm plates coated with 0.2% gelatin to remove feeder cells. One hour later, the cells were washed with DMEM/F12+Glutamax [stage-1 medium] containing 500 U/ml penicillin/streptomycin and 2% FBS (HyClone), transferred to ultra-low attachment dishes (Corning 3471) having a stage-1 medium containing 100 ng/ml recombinant human/mouse/rat Activin A (R&D Systems) and 1 μM CHIR99021, and cultured at 37° C. in a 5% CO2 atmosphere for 2 days.
In order to differentiate into the intermediate mesoderm, the cell mass (embryoid body (EB)) obtained at stage 1 was transferred to a 24-well plate coated with Synthemax II (Corning), the medium was exchanged with DMEM/F12+Glutamax containing 0.1 mM MEM NEAA, 500 U/ml penicillin/streptomycin, 0.55 mM 2-mercaptoethanol, 10% KSR, 100 ng/ml BMP7 (recombinant human BMP7, R&D Systems), and 1 μM CHIR99021, and the cells were cultured at 37° C. in a 5% CO2 atmosphere for 3 days.
After stage 2, the medium was exchanged with DMEM/F12+Glutamax containing 0.1 mM MEM NEAA, 500 U/ml penicillin/streptomycin, 0.55 mM 2-mercaptoethanol, 10% KSR, 1 μM TTNPB (Sigma T3757), and 5 ng/ml TGFβ1 (Peprotech), followed by culturing at 37° C. in a 5% CO2 atmosphere for 5 days. The medium was exchanged with a medium having the same conditions two days after the start of culture (i.e., day 8 from the start of stage 1 (day 1)).
After stage 3, the medium was exchanged with DMEM/F12+Glutamax containing 0.1 mM MEM NEAA, 500 U/ml penicillin/streptomycin, 0.55 mM 2-mercaptoethanol, 10% KSR, 5 ng/ml TGFβ1, and 0.5 μM DMH1 (Tocris), followed by culturing at 37° C. in a 5% CO2 atmosphere for 17 days (i.e., culturing for 28 days in total from the start of stage 1 (day 1); FIG. 3A). In this case, the medium was exchanged every 3 days with a medium having the same conditions. […] In addition, the OSR1^+SIX2^+ cell rate reached the maximum level on day 25 of culture and then it was confirmed to be maintained until day 28 of culture (FIG. 3D).
Induction of OSR1^+SIX2^+ cells from the 4A6C3-10 iPS cell line was examined using different combinations of TGFβ signaling activators and BMP inhibitors. Specifically, induction of OSR1^+SIX2^+ cells from 4A6C3-10 was examined under conditions 1) to 10) described below. […]

TGFβ1: TGFβ signaling activator protein (Peprotech)
induction of OSR1+SIX2+ cells (Example 8, comparison of combinations of TGFβ signaling activators and BMP inhibitors at stage 4 (FIG. 4)): effective
OSR1-positive and SIX2-positive (OSR1+SIX2+) cell rate (induction method 4, stage 4 medium with 5 ng/ml TGFβ1 and 0.5 μM DMH1, day 28 of culture): 32.8%
